The target of experiment [1] is T1, Carbonic anhydrase 2 (Homo sapiens, UniProt P00918). The experiment is described as follows: Inhibition of human CA2 by 4-nitrophenyl acetate hydrolysis.
For experiment [2], the target named is T1, Carbonic anhydrase 2.
Description: Inhibition of human CA2 by carbon dioxide hydration
The target of experiment [3] is T1, Carbonic anhydrase 2. The experiment is described as follows: Binding affinity to human CA2 in presence of sodium sulfate and ANS at pH 7.5 by ThermoFluor assay.
The target of experiment [4] is T1, Carbonic anhydrase 2. The experiment is described as follows: Binding affinity to human CA2 at pH 7.4 by ThermoFluor assay.

On to `NS(=O)(=O)Nc1ccc([N+](=O)[O-])cc1`, for which the inhibition constant Ki (commonly a dissociation constant, usually derived from enzyme kinetics or from competition with a known ligand) at Carbonic anhydrase 2 [1] amounted to 1.74 µM; on Carbonic anhydrase 2 [2], 0.892 µM. Moreover, the Kd (as a rule, the concentration at which binding is half-saturated) on Carbonic anhydrase 2 [3] was found to be 1 µM; on Carbonic anhydrase 2 [4] it was 1.5 µM.
In the case of `COc1ccc(NS(N)(=O)=O)cc1`, the Ki came out at 18.8 µM on Carbonic anhydrase 2 [1] and 14.4 µM at Carbonic anhydrase 2 [2]. Further, the equilibrium dissociation constant (Kd) worked out at 2.65 µM on Carbonic anhydrase 2 [3] and 5 µM at Carbonic anhydrase 2 [4].

Source of the values: ChEMBL document CHEMBL1148633, “Inhibition of carbonic anhydrase-II by sulfamate and sulfamide groups: an investigation involving direct thermodynamic binding measurements” (J Med Chem, 2006).
